# Target: T1, p53-Y220C mutant protein (Homo sapiens, UniProt P04637, Y220C)
# T1 construct: The recombinant Y220C p53 DBD protein with his-tag
# Test: In vitro DNA binding activity assay (TR-FRET)
# Type: biochemical
# Conditions: concentration required to increase the binding activity of protein to DNA by 50%
# Description: The activity of the compound to modulate the binding of the p53-Y220C mutant protein to DNA was detected using TR-FREt (Time-Resolved Fluorescence Resonance Energy Transfer). The recombinant Y220C p53 DBD protein with his-tag and the DNA sequence with biotin label were prepared firstly. Donor Eu(Europium)-SA(Streptavidin) can be bound to the DNA sequence through biotin, receptor for his antibody attached to alphaphycocyanin(APC, allophycocyanin), and his antibody can be bound to the Y220C p53 DBD protein with his-tag. When exposed to an excitation light with a wavelength of 340 nm, the donor Eu(Europium)-SA(Streptavidin) can emit fluorescence with a wavelength of 615 nm. If the donor and the receptor are close to each other, the donor will transfer part of the energy to the receptor and produce fluorescence with a wavelength of 665 nm. […] If there is no interaction, only 615 nm fluorescence is produced. • 1) Experimental steps • a. Adding 4 µL of dilute compound solution to each well of a 384-well microplate; • a. Adding 4 µL of 4X P53 working solution to each well of the 384-well microplate; • c. Sealing the 384-well microplate and equilibrating the system at room temperature for 60 min; • d. Adding 4 µl of biotin DNA solution to the 384-well microplate; • e. Adding 4 µl of 4X test solution (MAb Anti-6His-Eu and streptavidin-d2) to each well of the 384-well microplate; • f. Incubating overnight in the dark; and • g. Reading data of 665 nm and 615 nm wavelengths on the BMG multifunctional microplate reader. • 2) Data analysis • a. Calculating the ratio for each well (Ratio665 nm/615 nm-Ratiobackground); • b. Calculating the activity percentage (%activity) as follows: C = (Ave_Ac−Ave_Ba)/(Ave_Dc−Ave_Bd) [formula] R data = (A−Ave_Ba−CD)/(D−Ave_Bd)*(Ave_Dc−Ave_Bd) [formula] % Activity = R data/Ave_VC*100 [formula] • A: Fluorescence intensity of the sample at 665 nm; D: Fluorescence intensity of the sample at 615 nm; • Ba: Background fluorescence intensity of the culture plate at 665 nm; Bd: Background fluorescence intensity of the culture plate at 615 nm; • Dc: Background fluorescence intensity of HIS-E at 615 nm; Ac: Background fluorescence intensity of streptavidin-d2 at 665 nm); and • c. Calculating SC150 and plotting dose-effect curve
# Compared to the absence of the compound of the present invention, the activation percentage of binding of the p53 mutant protein to DNA in the presence of the compound of the present invention is expressed as SC150, which indicates the concentration of the compound required to increase the DNA binding activity of the p53 mutant protein by 50%. The SC150 is calculated using Prism™.
row,Compound,SC150 [nM]
1,CN1CC[C@@H](Nc2cccc3c(CC(F)(F)F)c(C#CCNC(=O)c4cnn(C5(C)CCOCC5)c4)nn23)[C@@H](F)C1 [Compound 014],13
2,"CN1CC[C@@H](Nc2cccc3c(CC(F)(F)F)c(C#CCNC(=O)c4cnn(-c5ccccc5)c4)nn23)[C@@H](F)C1 [Compound 015, N-[3-(7-{[(3S,4R)-3-fluoro-l-methylpiperidin-4-yl]amino}-3-(2,2,2-trifluoroethyl)pyrazolo[1,5-a]pyridin-2-yl)prop-2-yn-1-yl]-1-phenyl-1H-pyrazole-4-carboxamide]",62
3,"COCC(C)(C)n1cc(C(=O)NCC#Cc2nn3c(N[C@@H]4CCN(C)C[C@@H]4F)cccc3c2CC(F)(F)F)cn1 [Compound 022, N-[3-(7-{[(3S,4R)-3-fluoro-1-methylpiperidin-4-yl]amino}-3-(2,2,2-trifluoroethyl)pyrazolo[1,5-a]pyridin-2-yl)prop-2-yn-1-yl]-1-(1-methoxy-2-methylpropan-2-yl)-1H-pyrazole-4-carboxamide]",8
4,"CN1CC[C@@H](Nc2cccc3c(CC(F)(F)F)c(C#CCNC(=O)c4cnn(C(F)(F)F)c4)nn23)[C@@H](F)C1 [Compound 024, N-[3-(7-{[(3S,4R)-3-fluoro-1-methylpiperidin-4-yl]amino}-3-(2,2,2-trifluoroethyl)pyrazolo[1,5-a]pyridin-2-yl)prop-2-yn-1-yl]-1-(trifluoromethyl)-1H-pyrazole-4-carboxamide]",58
5,"CC(n1cc(C(=O)NCC#Cc2nn3c(N[C@@H]4CCN(C)C[C@@H]4F)cccc3c2CC(F)(F)F)cn1)C(F)(F)F (stereo partly drawn) [Compound 029, N-[3-(7-{[(3S,4R)-3-fluoro-1-methylpiperidin-4-yl]amino}-3-(2,2,2-trifluoroethyl)pyrazolo[1,5-a]pyridin-2-yl)prop-2-yn-1-yl]-1-(1,1,1-trifluoroprop-2-yl)-1H-pyrazole-4-carboxamide]",15
6,CN1CC[C@@H](Nc2cccc3c(CC(F)(F)F)c(C#CCNC(=O)c4cnn(CC(F)(F)F)c4)nn23)[C@@H](F)C1 [Compound 030],18
7,COc1nn(C(C)(C)C)cc1C(=O)NCC#Cc1nn2c(N[C@@H]3CCN(C)C[C@@H]3F)cccc2c1CC(F)(F)F [Compound 043],86
8,"COc1cccc(C(=O)NCC#Cc2nn3c(N[C@@H]4CCN(C)C[C@@H]4F)cccc3c2CC(F)(F)F)c1 [Compound 072, N-[3-(7-{[(3S,4R)-3-fluoro-1-methylpiperidin-4-yl]amino}-3-(2,2,2-trifluoroethyl)pyrazolo[1,5-a]pyridin-2-yl)prop-2-yn-1-yl]-3-methoxybenzamide]",41
9,"CN1CC[C@@H](Nc2cccc3c(CC(F)(F)F)c(C#CCNC(=O)c4ccccn4)nn23)[C@@H](F)C1 [Compound 075, N-[3-(7-{[(3S,4R)-3-fluoro-1-methylpiperidin-4-yl]amino}-3-(2,2,2-trifluoroethyl)pyrazolo[1,5-a]pyridin-2-yl)prop-2-yn-1-yl]pyridine-2-carboxamide]",95
10,"CN1CC[C@@H](Nc2cccc3c(CC(F)(F)F)c(C#CCNC(=O)c4ccc(F)cc4)nn23)[C@@H](F)C1 [Compound 076, 4-fluoro-N-[3-(7-{[(3S,4R)-3-fluoro-1-methylpiperidin-4-yl]amino}-3-(2,2,2-trifluoroethyl)pyrazolo[1,5-a]pyridin-2-yl)prop-2-yn-1-yl]benzamide]",75
11,"CN1CC[C@@H](Nc2cccc3c(CC(F)(F)F)c(C#CCNC(=O)c4cn(C(C)(C)C)nn4)nn23)[C@@H](F)C1 [Compound 142, 1-tert-butyl-N-[3-(7-{[(3S,4R)-3-fluoro-1-methylpiperidin-4-yl]amino}-3-(2,2,2-trifluoroethyl)pyrazolo[1,5-a]pyridin-2-yl)prop-2-yn-1-yl]-1H-1,2,3-triazole-4-carboxamide]",29
12,"CN1CC[C@@H](Nc2cccc3c(CC(F)(F)F)c(C#CCNC(=O)c4nnn(C(C)(C)C)n4)nn23)[C@@H](F)C1 [Compound 145, 2-tert-butyl-N-[3-(7-{[(3S,4R)-3-fluoro-1-methylpiperidin-4-yl]amino}-3-(2,2,2-trifluoroethyl)pyrazolo[1,5-a]pyridin-2-yl)prop-2-yn-1-yl]-2H-tetrazole-5-carboxamide]",50
13,"CN1CC[C@@H](Nc2cccc3c(CC(F)(F)F)c(C#CCNC(=O)c4cnn(C(C)(C)C(F)(F)F)c4)nn23)[C@@H](F)C1 [Compound 148, N-[3-(7-{[(3S,4R)-3-fluoro-1-methylpiperidin-4-yl]amino}-3-(2,2,2-trifluoroethyl)pyrazolo[1,5-a]pyridin-2-yl)prop-2-yn-1-yl]-1-(1,1,1-trifluoro-2-methylprop-2-yl)-1H-pyrazole-4-carboxamide]",27
14,"Cc1ccc(C(=O)NCC#Cc2nn3c(N[C@@H]4CCN(C)C[C@@H]4F)cccc3c2CC(F)(F)F)cc1 [Compound 160, N-[3-(7-{[(3S,4R)-3-fluoro-1-methylpiperidin-4-yl]amino}-3-(2,2,2-trifluoroethyl)pyrazolo[1,5-a]pyridin-2-yl)prop-2-yn-1-yl]-4-methylbenzamide]",84
15,"CN1CC[C@@H](Nc2cccc3c(CC(F)(F)F)c(C#CCNC(=O)c4cnn(C(C)(C)CF)c4)nn23)[C@@H](F)C1 [Compound 234, N-[3-(7-{[(3S,4R)-3-fluoro-1-methylpiperidin-4-yl]amino}-3-(2,2,2-trifluoroethyl)pyrazolo[1,5-a]pyridin-2-yl)prop-2-yn-1-yl]-1-(1-fluoro-2-methylpropan-2-yl)-1H-pyrazole-4-carboxamide]",21
16,"CN1CC[C@@H](Nc2cccc3c(CC(F)(F)F)c(C#CCNC(=O)C4C5COCC54)nn23)[C@@H](F)C1 (stereo partly drawn) [Compound 240, N-[3-(7-{[(3S,4R)-3-fluoro-1-methylpiperidin-4-yl]amino}-3-(2,2,2-trifluoroethyl)pyrazolo[1,5-a]pyridin-2-yl)prop-2-yn-1-yl]-3-oxabicyclo[3.1.0]hexane-6-carboxamide]",75
17,"CN1CC[C@@H](Nc2cccc3c(CC(F)(F)F)c(C#CCNC(=O)C4CC45CC5)nn23)[C@@H](F)C1 (stereo partly drawn) [Compound 241, N-[3-(7-{[(3S,4R)-3-fluoro-1-methylpiperidin-4-yl]amino}-3-(2,2,2-trifluoroethyl)pyrazolo[1,5-a]pyridin-2-yl)prop-2-yn-1-yl]spiro[2.2]pentane-1-carboxamide]",82
18,"CN1CC[C@@H](Nc2cccc3c(CC(F)(F)F)c(C#CCNC(=O)c4cnn(C(C)(C)C#N)c4)nn23)[C@@H](F)C1 [Compound 248, 1-(1-cyano-1-methylethyl)-N-[3-(7-{[(3S,4R)-3-fluoro-1-methylpiperidin-4-yl]amino}-3-(2,2,2-trifluoroethyl)pyrazolo[1,5-a]pyridin-2-yl)prop-2-yn-1-yl]-1H-pyrazole-4-carboxamide]",14
19,"CN1CC[C@@H](Nc2cccc3c(CC(F)(F)F)c(C#CCNC(=O)c4cnn(CC#N)c4)nn23)[C@@H](F)C1 [Compound 249, 1-cyanomethyl-N-[3-(7-{[(3S,4R)-3-fluoro-1-methylpiperidin-4-yl]amino}-3-(2,2,2-trifluoroethyl)pyrazolo[1,5-a]pyridin-2-yl)prop-2-yn-1-yl]-1H-pyrazole-4-carboxamide]",17
20,"CN1CC[C@@H](Nc2cccc3c(CC(F)(F)F)c(C#CCNC(=O)c4ccc(=O)n(C)c4)nn23)[C@@H](F)C1 [Compound 265, N-[3-(7-{[(3S,4R)-3-fluoro-1-methylpiperidin-4-yl]amino}-3-(2,2,2-trifluoroethyl)pyrazolo[1,5-a]pyridin-2-yl)prop-2-yn-1-yl]-1-methyl-6-oxo-1,6-dihydropyridine-3-carboxamide]",40
21,"COc1ccc(C(=O)NCC#Cc2nn3c(N[C@@H]4CCN(C)C[C@@H]4F)cccc3c2CC(F)(F)F)cn1 [Compound 266, N-(3-(7-{[(3S,4R)-3-fluoro-1-methylpiperidin-4-yl]amino}-3-(2,2,2-trifluoroethyl)pyrazolo[1,5-a]pyridin-2-yl)prop-2-yn-1-yl)-6-methoxynicotinamide]",46
